Laboratory results taken from patent US20250042900A1 (priority 2022, published 2025).
Where a name gives a salt, the structure may show the parent alone. Read-outs that look alike come from different tables or passages of the source.

How the values were obtained:
[1] = biological target: Histamine Receptor H2 (HRH2) (Homo sapiens, UniProt P25021); experiment: cAMP secondary messenger assay, agonist format; assay type: cell-based; details: read-out: EC50 (μM) Agonist/Opener
[2] = biological target: Opioid Receptor Delta 1 (OPRD1) (Homo sapiens, UniProt P41143); experiment: cAMP secondary messenger assay, antagonist format; assay type: cell-based; details: read-out: IC50 (μM) Antag./Blocker/Inhibitor
[3] = biological target: T1, Endothelin Receptor Type A (EDNRA) (Homo sapiens, UniProt P25101); experiment: Calcium flux secondary messenger assay, antagonist format; assay type: cell-based; details: read-out: IC50 (μM) Antag./Blocker/Inhibitor
[4] = biological target: Adrenergic Receptor β1 (ADRB1) (Homo sapiens, UniProt P08588); experiment: cAMP secondary messenger assay, antagonist format; assay type: cell-based; details: read-out: IC50 (μM) Antag./Blocker/Inhibitor
[5] = biological target: T2, 5-Hydroxytryptamine (Serotonin) Receptor 1A (5-HT1A) (Homo sapiens, UniProt P08908); experiment: cAMP secondary messenger assay, antagonist format; assay type: cell-based; details: read-out: IC50 (μM) Antag./Blocker/Inhibitor
T2 construct: host or cells: cAMP Hunter cell line

[6] = biological target: Cannabinoid Receptor 2 (CNR2) (Homo sapiens, UniProt P34972); experiment: cAMP secondary messenger assay, antagonist format; assay type: cell-based; details: read-out: IC50 (μM) Antag./Blocker/Inhibitor
KvLQT1/minK = KvLQT1/minK (Homo sapiens, UniProt P51787); experiment: Ion channel assay, blocker format; assay type: cell-based; details: read-out: IC50 (μM) Antag./Blocker/Inhibitor
[7] = biological target: CAV1.2 (Voltage-gated L-type calcium channel) (Homo sapiens, UniProt Q13936); experiment: Ion channel assay, blocker format; assay type: cell-based; details: read-out: IC50 (μM) Antag./Blocker/Inhibitor
[8] = biological target: Opioid Receptor Mu (OPRM1) (Homo sapiens, UniProt P35372); experiment: cell-based; details: cAMP, agonist, read-out: EC50 (μM) Agonist/Opener
[9] = biological target: Nicotinic acetylcholine Receptor α4 β2 (nAChR(a4/b2)) (Homo sapiens, UniProt P17787+P43681); experiment: Ion channel assay, blocker format; assay type: cell-based; details: read-out: IC50 (μM) Antag./Blocker/Inhibitor
[10] = biological target: T3, 5-Hydroxytryptamine (Serotonin) Receptor 2B (5-HT2B) (Homo sapiens, UniProt P41595); experiment: Calcium flux secondary messenger assay, antagonist format; assay type: cell-based; details: read-out: IC50 (μM) Antag./Blocker/Inhibitor
[11] = biological target: T4, Vascular endothelial growth factor receptor 2 (KDR tyrosine kinase) (VEGFR2) (Homo sapiens, UniProt P35968); experiment: biochemical; details: Binding, inhibitor, read-out: IC50 (μM) Antag./Blocker/Inhibitor
T4 construct: T7 phage fusion (most assays) or DNA tag for qPCR (the remaining kinases); made in house; host or cells: E. coli (BL21-derived, T7 phage display) or HEK-293

[12] = biological target: T5, Adrenergic Receptor β2 (ADRB2) (Homo sapiens, UniProt P07550); experiment: cAMP secondary messenger assay, antagonist format; assay type: cell-based; details: read-out: IC50 (μM) Antag./Blocker/Inhibitor
[13] = biological target: Adenosine Receptor A2A (ADORA2A) (Homo sapiens, UniProt P29274); experiment: Calcium flux secondary messenger assay, antagonist format; assay type: cell-based; details: read-out: IC50 (μM) Antag./Blocker/Inhibitor
[14] = biological target: Dopamine Receptor D1 (DRD1) (Homo sapiens, UniProt P21728); experiment: cAMP secondary messenger assay, agonist format; assay type: cell-based; details: read-out: EC50 (μM) Agonist/Opener
[15] = biological target: Muscarinic acetylcholine Receptor M1 (CHRM1) (Homo sapiens, UniProt P11229); experiment: Calcium flux secondary messenger assay, agonist format; assay type: cell-based; details: read-out: EC50 (μM) Agonist/Opener
[16] = biological target: Cholecystokinin Receptor A (CCKAR) (Homo sapiens, UniProt P32238); experiment: as above; assay type: cell-based; details: read-out: EC50 (μM) Agonist/Opener
[17] = biological target: HTR2A (5-hydroxytryptamine (serotonin) receptor 2A) (Homo sapiens, UniProt P28223); experiment: In vitro activity at 5-HT2AR, agonist mode (calcium flux secondary messenger assay); assay type: cell-based; details: for EC50: agonist
AChE = biological target: T6, AChE (Homo sapiens, UniProt P22303); experiment: Enzymatic assay AChE; assay type: biochemical; details: inhibitor, read-out: IC50 (μM) Antag./Blocker/Inhibitor
T6 construct: purchased R&D Systems

[18] = biological target: 5-Hydroxytryptamine (Serotonin) Receptor 2A (5-HT2A) (Homo sapiens, UniProt P28223); experiment: Calcium flux secondary messenger assay, antagonist format; assay type: cell-based; details: read-out: IC50 (μM) Antag./Blocker/Inhibitor
[19] = biological target: Nuclear Hormone Glucocorticoid Receptor (GR) (Homo sapiens, UniProt P04150); experiment: NHR Protein Interaction assay, agonist format; assay type: cell-based; details: read-out: EC50 (μM) Agonist/Opener
[20] = biological target: T5, Adrenergic Receptor β2 (ADRB2); experiment: cAMP secondary messenger assay, agonist format; assay type: cell-based; details: read-out: EC50 (μM) Agonist/Opener
[21] = biological target: N-methyl-D-aspartate (NMDA) Glutamate Receptor 1A/2B (NMDAR (1A/2B)) (Homo sapiens, UniProt Q05586+Q13224); experiment: Ion channel assay, opener format; assay type: cell-based; details: read-out: EC50 (μM) Agonist/Opener
COX1 = biological target: T7, COX1 (Homo sapiens, UniProt P23219); experiment: Enzymatic assay COX1; assay type: biochemical; details: inhibitor, read-out: IC50 (μM) Antag./Blocker/Inhibitor
T7 construct: purchased BPS Bioscience

PDE4D2 = biological target: T8, PDE4D2 (Homo sapiens, UniProt Q08499); experiment: Enzymatic assay PDE4D2; assay type: biochemical; details: inhibitor, read-out: IC50 (μM) Antag./Blocker/Inhibitor
T8 construct: purchased Signal Chem

[22] = biological target: Adrenergic Receptor α2A (ADRA2A) (Homo sapiens, UniProt P08913); experiment: cAMP secondary messenger assay, antagonist format; assay type: cell-based; details: read-out: IC50 (μM) Antag./Blocker/Inhibitor
[23] = biological target: Adrenergic Receptor α1A (ADRA1A) (Homo sapiens, UniProt P35348); experiment: Calcium flux secondary messenger assay, antagonist format; assay type: cell-based; details: read-out: IC50 (μM) Antag./Blocker/Inhibitor
[24] = biological target: T3, 5-Hydroxytryptamine (Serotonin) Receptor 2B (5-HT2B); experiment: Calcium flux secondary messenger assay, agonist format; assay type: cell-based; details: read-out: EC50 (μM) Agonist/Opener
[25] = biological target: Histamine Receptor H1 (HRH1) (Homo sapiens, UniProt P35367); experiment: cell-based; details: Calcium Flux, antagonist, read-out: IC50 (μM) Antag./Blocker/Inhibitor
[26] = biological target: NAV1.5 (tetrodotoxin-resistant voltage-gated sodium channel) (Homo sapiens, UniProt Q14524); experiment: cell-based
[27] = biological target: T1, Endothelin Receptor Type A (EDNRA); experiment: Calcium flux secondary messenger assay, agonist format; assay type: cell-based; details: read-out: EC50 (μM) Agonist/Opener

T1 sequence (P25101 21-427): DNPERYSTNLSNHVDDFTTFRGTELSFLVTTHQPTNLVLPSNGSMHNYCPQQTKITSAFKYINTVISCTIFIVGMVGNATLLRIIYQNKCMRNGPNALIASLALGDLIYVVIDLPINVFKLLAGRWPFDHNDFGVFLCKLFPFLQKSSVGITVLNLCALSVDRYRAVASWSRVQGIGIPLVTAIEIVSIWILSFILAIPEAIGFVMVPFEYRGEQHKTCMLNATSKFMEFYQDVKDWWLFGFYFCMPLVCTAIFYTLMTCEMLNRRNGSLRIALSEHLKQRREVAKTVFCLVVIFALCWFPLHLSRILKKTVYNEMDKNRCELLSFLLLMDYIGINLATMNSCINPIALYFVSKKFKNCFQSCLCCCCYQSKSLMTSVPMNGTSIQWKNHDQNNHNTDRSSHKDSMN
T3 sequence (P41595 whole entry): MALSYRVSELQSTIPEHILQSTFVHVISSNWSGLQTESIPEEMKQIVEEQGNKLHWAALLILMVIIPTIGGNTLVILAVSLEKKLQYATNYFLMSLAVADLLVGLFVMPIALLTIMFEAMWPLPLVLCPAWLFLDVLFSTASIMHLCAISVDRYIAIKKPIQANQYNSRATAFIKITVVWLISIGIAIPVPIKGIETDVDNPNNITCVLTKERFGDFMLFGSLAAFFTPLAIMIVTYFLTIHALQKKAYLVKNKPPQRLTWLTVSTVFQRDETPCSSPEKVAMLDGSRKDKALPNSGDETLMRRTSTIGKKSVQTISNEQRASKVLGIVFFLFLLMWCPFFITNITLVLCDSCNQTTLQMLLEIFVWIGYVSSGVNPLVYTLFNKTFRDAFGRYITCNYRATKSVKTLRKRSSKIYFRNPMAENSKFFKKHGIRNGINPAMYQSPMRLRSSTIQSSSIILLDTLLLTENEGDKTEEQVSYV
T5 sequence (P07550 whole entry): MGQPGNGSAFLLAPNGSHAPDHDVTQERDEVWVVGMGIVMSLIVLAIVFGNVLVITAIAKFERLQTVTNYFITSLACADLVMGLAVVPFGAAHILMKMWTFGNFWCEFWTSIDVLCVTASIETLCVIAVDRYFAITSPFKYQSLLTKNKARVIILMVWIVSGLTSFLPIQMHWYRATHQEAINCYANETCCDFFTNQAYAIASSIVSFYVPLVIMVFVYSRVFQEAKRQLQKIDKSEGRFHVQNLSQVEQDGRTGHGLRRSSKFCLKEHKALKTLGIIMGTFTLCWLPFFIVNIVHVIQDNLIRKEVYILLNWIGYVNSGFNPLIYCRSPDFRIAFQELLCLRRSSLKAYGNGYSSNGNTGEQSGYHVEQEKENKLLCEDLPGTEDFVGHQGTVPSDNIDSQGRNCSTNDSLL
Nuclear Hormone Glucocorticoid Receptor (GR), sequence (P04150 whole entry): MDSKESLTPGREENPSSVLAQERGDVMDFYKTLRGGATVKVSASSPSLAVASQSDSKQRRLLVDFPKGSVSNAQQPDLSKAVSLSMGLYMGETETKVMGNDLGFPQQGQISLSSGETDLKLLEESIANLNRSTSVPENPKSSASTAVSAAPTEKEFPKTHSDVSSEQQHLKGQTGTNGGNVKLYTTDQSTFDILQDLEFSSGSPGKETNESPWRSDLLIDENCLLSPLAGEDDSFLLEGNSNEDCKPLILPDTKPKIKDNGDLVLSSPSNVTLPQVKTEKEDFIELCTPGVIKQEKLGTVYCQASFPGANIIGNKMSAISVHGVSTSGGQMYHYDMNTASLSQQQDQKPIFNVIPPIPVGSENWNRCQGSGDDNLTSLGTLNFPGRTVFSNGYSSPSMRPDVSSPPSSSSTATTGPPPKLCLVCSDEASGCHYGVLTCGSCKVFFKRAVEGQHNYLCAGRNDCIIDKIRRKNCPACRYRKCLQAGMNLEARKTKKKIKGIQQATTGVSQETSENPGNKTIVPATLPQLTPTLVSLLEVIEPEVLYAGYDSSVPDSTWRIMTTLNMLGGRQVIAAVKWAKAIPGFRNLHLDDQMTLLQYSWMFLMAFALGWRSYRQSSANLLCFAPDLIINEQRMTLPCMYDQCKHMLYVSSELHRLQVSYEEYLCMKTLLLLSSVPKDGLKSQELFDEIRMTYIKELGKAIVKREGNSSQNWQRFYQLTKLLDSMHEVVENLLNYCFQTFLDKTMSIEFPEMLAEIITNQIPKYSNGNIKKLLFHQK
Adrenergic Receptor α1A (ADRA1A), sequence (P35348 whole entry): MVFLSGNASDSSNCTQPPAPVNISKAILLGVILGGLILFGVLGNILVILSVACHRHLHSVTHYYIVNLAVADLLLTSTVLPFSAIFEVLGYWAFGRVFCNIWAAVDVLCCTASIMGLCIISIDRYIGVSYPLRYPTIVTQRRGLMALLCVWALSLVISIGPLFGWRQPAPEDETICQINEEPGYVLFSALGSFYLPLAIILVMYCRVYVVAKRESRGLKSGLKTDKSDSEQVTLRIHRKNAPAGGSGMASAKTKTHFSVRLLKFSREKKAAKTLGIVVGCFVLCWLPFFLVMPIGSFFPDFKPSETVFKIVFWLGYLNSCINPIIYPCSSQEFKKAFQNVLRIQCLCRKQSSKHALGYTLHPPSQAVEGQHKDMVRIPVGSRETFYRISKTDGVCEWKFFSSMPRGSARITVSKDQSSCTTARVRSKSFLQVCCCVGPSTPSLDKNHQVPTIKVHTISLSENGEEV
KvLQT1/minK, sequence (P51787 whole entry): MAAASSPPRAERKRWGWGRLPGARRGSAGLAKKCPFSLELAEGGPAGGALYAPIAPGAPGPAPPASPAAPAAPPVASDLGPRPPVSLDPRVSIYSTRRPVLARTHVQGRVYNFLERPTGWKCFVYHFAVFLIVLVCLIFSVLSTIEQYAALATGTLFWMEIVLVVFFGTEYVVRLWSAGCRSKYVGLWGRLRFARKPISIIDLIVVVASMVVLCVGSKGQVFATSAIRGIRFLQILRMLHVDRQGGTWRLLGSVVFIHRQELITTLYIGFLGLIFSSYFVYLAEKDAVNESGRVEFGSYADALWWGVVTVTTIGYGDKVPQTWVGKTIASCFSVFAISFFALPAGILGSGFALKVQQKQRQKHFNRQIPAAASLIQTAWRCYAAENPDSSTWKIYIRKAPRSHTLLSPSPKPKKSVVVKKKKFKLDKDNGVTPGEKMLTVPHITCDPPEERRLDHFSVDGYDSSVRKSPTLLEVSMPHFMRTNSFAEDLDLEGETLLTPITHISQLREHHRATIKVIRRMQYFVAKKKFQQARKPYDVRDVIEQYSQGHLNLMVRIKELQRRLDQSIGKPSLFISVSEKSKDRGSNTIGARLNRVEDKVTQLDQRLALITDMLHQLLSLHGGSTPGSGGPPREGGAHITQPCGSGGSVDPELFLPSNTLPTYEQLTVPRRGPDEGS
Adrenergic Receptor β1 (ADRB1), sequence (P08588 whole entry): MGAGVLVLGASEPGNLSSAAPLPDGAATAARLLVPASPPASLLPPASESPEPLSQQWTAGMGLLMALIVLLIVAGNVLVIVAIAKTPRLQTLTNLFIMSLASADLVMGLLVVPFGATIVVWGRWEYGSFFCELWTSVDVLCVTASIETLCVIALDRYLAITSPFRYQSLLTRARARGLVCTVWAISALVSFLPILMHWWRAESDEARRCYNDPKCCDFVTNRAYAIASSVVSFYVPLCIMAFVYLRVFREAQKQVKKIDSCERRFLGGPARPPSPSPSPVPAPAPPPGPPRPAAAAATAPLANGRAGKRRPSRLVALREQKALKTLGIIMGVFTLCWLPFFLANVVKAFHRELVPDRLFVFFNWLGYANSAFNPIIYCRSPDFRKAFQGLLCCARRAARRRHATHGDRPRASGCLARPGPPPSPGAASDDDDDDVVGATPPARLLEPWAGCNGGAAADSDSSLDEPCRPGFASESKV
Opioid Receptor Mu (OPRM1), sequence (P35372 whole entry): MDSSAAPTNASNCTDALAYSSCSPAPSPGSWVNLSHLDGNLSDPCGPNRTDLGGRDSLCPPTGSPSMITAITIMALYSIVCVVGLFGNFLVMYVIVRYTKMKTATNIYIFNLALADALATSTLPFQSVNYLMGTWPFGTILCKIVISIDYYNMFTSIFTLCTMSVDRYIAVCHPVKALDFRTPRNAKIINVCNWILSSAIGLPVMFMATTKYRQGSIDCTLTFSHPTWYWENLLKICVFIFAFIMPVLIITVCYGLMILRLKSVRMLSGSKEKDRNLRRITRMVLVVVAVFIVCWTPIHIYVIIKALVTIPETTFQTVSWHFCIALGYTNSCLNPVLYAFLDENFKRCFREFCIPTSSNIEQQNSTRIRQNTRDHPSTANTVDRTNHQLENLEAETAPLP
Muscarinic acetylcholine Receptor M1 (CHRM1), sequence (P11229 whole entry): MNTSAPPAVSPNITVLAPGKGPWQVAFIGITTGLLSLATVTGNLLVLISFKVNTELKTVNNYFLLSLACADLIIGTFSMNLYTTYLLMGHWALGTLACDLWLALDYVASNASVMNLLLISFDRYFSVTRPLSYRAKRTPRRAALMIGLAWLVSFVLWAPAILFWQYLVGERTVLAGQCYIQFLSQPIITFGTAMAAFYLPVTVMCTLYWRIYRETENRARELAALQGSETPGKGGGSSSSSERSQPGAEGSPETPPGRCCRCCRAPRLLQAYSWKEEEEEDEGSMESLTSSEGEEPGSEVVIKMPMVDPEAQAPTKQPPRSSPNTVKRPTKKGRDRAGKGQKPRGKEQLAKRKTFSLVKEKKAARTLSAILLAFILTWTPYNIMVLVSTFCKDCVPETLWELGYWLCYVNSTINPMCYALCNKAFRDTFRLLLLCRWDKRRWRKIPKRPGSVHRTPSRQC

CN(C)CCc1ccn2ccccc12 [28-12 oxalate, 2-(indolizin-1-yl)-N, N-dimethylethan-1-amine oxalate]
EC50 [1]: > 30 µM | IC50 [2]: > 30 µM | IC50 [3]: > 30 µM | IC50 [4]: > 30 µM | IC50 [5]: > 30 µM | IC50 [6]: > 30 µM | IC50 (KvLQT1/minK): > 30 µM | IC50 [7]: > 30 µM | EC50 [8]: > 30 µM | IC50 [9]: > 30 µM | IC50 [10]: 3.28 µM | IC50 [11]: > 30 µM | IC50 [12]: 10.2 µM | IC50 [13]: > 30 µM | EC50 [14]: > 30 µM | EC50 [15]: > 30 µM | EC50 [16]: > 30 µM | agonist effects at 5-HT2AR (in words) [17]: partial agonist effects | EC50 ([17]; 5-HT2A, Calcium Flux, read-out: EC50 (μM) Agonist/Opener): 0.052 µM | EC50 ([17]; ten concentrations up to 30 μM, estimated, read-out: EC50 at 5-HT2AR): ~0.0522 µM | Emax ([17]; of the response produced by 5-HT, read-out: maximum effect at 5-HT2AR): ~30% | IC50 (AChE): > 30 µM | IC50 [18]: 1.08 µM | EC50 [19]: > 30 µM | EC50 [20]: > 30 µM | EC50 [21]: > 30 µM | IC50 (COX1): 5.13 µM | IC50 (PDE4D2): > 30 µM | IC50 [22]: > 30 µM | IC50 [23]: 2.31 µM | EC50 [24]: > 30 µM | IC50 [25]: 9.27 µM | IC50 [26]: > 30 µM | EC50 [27]: > 30 µM
